Laboratory results from US8354499B2, “Cyanine-based probe\tag-peptide pair fluorescence protein imaging and fluorescence protein imaging methods” (Battelle Memorial Institute, priority 2007, dated 2013).

Key:
[1] = depending on binding peptide; cited from earlier work
[2] = system: tagged MLCK peptide (calmodulin binding peptide of myosin light chain kinase with SEQ ID NO. 2 tag on the C-terminus); experiment: Fluorescence titration of the formula (I) probe with tagged MLCK peptide; conditions: titration of tagged MLCK peptide into probe solution, FIG. 2
Text: For the present study, a tagged peptide was created utilizing the calmodulin binding peptide of the myosin light chain kinase (MLCK) having SEQ ID NO. 2 engineered onto the C-terminus (henceforth tagged MLCK peptide). To determine the binding affinity of the probe to the tag, the tagged MLCK peptide was titrated into a solution containing a probe having formula (I). […] This corresponds to peak molar binding in the absence of ethanedithiol.

[3] = system: Non-tagged MLCK peptide; experiment: Control titration of the probe with non-tagged MLCK peptide; format: binding; conditions: FIG. 2 circles
[4] = system: peptide-tag (SEQ ID NO. 2) versus FlAsH tag (SEQ ID NO. 3); experiment: Single-pot selective labeling / FRET study, tagged MLCK peptide and FlAsH-tag calmodulin; format: binding
Experimental: Fluorescent resonance energy transfer (FRET) studies were also performed. Calmodulin which is known to bind MLCK in a 1:1 ratio in the presence of calcium was covalently linked to a FlAsH-tag having sequence CysCysProGlyCysCys (SEQ ID NO. 3). SEQ ID NO. 2 was utilized to label the MLCK peptide as described above.

[5] = Absorbance, emission and photophysical properties of free and tag-bound probe; format: physicochemical
Text: In addition to NMR, the synthesized probe of formula (I) was characterized by determining the absorbance and emission spectra, as presented in FIG. 1. The free probe has an absorbance maximum at 560 nm and an emission maximum at 568 nm.
The spectra of FIG. 1 are normalized to the probe/tagged MLCK peptide pair.
The tag bound probe has a quantum yield of 0.28.

SMILES | brightness (reported) [1] | increase of probe fluorescence upon addition of tagged peptide [2] [fold] | fluorescence change on titration with non-tagged MLCK peptide [3] | preference for binding of the peptide-tag over FlAsH tag ([4]; single pot labeling with FlAsH and formula (I), FRET results) | FRET between FlAsH labeled calmodulin and formula (I) labeled tagged MLCK peptide ([4]; titration with 0.1-1 μM labeled peptide, FIG. 3) | extinction coefficient [5] | absorbance maximum ([5]; free probe) [nm] | emission maximum ([5]; free probe) [nm] | lifetime under photo bleaching conditions ([5]; peptide bound probe, relative to FlAsH) | fluorescence emission maximum ([5]; probe bound to peptide tag (red-shift)) [nm] | brightness relative to FlAsH and ReAsH ([5]; tag bound probe) | quantum yield ([5]; tag bound probe)
O=C(O)c1ccccc1-c1c2ccc(=O)c([As]3SCCS3)c-2oc2c([As]3SCCS3)c(O)ccc12 [FlAsH] | 41-60 |  |  |  |  |  |  |  |  |  |  | 
CC1(C)C(/C=C/C=C2/N(CCCCS(=O)(=O)O)c3ccc([As]4SCCS4)cc3C2(C)C)=[N+](CCCCS(=O)(=O)[O-])c2ccc([As]3SCCS3)cc21 [formula (I)] |  | 5.8 | no increase in fluorescence | 85/15 | FRET was observed in proportion to labeling | 180,000 | 560 | 568 | three times longer than that of FlAsH | 576 | considerably higher than ReAsH | 0.28
